Experimental data reported in article PMC9329436, “Optimization of the 4-anilinoquin(az)oline scaffold as epidermal growth factor receptor (EGFR) inhibitors for chordoma utilizing a toxicology profiling assay platform” (Scientific Reports, 2022).
Read-outs that look alike come from different tables or passages of the source.

How the values were obtained:
Assay type in all cases: biochemical
[1] = target: 320 wild-type protein kinases (Homo sapiens, UniProt Q5TCX8); conditions: singlicate
Text: (§1) Table S4. Profiling of two compounds at two concentrations against 320 wild-type protein kinases; singlicate measurement; Residual activities (% of control).

[2] = target: 320 wild-type protein kinases (Homo sapiens, UniProt Q16644); conditions: singlicate
Text: as §1

[3] = target: T1, 320 wild-type protein kinases (Homo sapiens, UniProt P29322); conditions: singlicate
T1 sequence (P29322 28-1005): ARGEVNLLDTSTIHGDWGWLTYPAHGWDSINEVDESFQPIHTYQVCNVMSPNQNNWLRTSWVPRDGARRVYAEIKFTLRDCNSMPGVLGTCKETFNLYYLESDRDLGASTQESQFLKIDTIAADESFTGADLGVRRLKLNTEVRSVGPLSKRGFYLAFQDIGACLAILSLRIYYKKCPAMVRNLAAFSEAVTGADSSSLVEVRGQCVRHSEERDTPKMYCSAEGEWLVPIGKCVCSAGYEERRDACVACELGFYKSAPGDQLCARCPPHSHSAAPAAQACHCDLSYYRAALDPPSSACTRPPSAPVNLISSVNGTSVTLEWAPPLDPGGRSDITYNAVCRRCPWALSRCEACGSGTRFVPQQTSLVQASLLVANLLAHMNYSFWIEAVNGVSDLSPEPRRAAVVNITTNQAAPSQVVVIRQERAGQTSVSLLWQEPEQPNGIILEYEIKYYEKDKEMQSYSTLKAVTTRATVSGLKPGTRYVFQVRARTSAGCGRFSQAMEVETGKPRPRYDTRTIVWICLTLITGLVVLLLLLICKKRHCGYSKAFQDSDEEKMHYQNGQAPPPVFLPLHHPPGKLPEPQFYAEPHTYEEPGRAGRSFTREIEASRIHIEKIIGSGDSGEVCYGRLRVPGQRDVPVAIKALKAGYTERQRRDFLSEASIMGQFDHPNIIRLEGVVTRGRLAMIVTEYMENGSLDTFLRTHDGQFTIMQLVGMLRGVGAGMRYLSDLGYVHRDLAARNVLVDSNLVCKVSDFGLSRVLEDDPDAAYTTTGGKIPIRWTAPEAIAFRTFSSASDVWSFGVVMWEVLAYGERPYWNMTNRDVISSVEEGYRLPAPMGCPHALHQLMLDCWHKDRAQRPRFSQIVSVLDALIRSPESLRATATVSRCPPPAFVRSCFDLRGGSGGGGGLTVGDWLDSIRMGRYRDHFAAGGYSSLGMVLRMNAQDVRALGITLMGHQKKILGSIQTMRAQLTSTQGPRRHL
Text: as §1

[4] = target: T2, 320 wild-type protein kinases (Homo sapiens, UniProt Q96BR1); conditions: kinase SGK3, singlicate
T2 sequence (Q96BR1 1-496): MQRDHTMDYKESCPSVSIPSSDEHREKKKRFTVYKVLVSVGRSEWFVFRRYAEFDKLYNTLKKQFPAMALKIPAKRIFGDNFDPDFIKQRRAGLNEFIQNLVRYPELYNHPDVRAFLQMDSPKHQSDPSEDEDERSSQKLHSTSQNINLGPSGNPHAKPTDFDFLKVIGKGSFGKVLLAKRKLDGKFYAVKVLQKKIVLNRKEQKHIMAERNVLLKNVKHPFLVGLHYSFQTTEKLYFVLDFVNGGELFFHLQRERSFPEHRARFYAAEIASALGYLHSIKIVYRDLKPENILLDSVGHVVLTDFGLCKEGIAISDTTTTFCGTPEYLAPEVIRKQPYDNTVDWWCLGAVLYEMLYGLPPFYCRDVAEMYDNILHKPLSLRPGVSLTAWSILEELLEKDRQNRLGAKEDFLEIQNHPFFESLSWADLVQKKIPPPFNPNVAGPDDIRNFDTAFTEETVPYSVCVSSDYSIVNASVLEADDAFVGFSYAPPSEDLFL
Text: as §1

[5] = target: 320 wild-type protein kinases (Homo sapiens, UniProt Q16620); conditions: kinase TRK-B, singlicate
Text: as §1

[6] = target: T3, 320 wild-type protein kinases (Homo sapiens, UniProt P54760); conditions: singlicate
T3 sequence (P54760 16-987): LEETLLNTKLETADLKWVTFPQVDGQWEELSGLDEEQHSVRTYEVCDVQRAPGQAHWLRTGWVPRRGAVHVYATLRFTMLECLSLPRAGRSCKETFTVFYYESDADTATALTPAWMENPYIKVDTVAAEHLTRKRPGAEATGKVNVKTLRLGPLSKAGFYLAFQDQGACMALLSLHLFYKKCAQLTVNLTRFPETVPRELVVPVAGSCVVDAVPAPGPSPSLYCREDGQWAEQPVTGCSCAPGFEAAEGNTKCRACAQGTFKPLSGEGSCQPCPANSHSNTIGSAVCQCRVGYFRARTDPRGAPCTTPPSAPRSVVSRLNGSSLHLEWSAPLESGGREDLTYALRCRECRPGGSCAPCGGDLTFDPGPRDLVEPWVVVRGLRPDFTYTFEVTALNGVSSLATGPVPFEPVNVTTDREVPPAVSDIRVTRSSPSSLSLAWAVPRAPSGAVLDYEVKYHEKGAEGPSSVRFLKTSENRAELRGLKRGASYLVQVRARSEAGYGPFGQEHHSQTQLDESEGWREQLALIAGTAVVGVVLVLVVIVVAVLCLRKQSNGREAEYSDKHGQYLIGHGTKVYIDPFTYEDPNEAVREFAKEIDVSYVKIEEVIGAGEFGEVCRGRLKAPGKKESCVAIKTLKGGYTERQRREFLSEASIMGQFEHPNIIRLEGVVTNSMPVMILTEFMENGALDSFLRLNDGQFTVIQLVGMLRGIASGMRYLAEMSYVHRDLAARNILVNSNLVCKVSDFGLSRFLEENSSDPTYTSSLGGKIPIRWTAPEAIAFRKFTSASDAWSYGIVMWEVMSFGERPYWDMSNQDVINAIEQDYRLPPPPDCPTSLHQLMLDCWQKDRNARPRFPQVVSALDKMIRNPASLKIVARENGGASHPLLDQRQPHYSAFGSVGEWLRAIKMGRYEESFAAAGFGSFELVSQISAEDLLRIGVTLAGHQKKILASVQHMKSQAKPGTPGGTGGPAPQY
Text: as §1

[7] = target: 320 wild-type protein kinases (Homo sapiens, UniProt P27361); conditions: singlicate
Text: as §1

Chain of 320 wild-type protein kinases (Homo sapiens, UniProt Q16620) (Q16620 32-822): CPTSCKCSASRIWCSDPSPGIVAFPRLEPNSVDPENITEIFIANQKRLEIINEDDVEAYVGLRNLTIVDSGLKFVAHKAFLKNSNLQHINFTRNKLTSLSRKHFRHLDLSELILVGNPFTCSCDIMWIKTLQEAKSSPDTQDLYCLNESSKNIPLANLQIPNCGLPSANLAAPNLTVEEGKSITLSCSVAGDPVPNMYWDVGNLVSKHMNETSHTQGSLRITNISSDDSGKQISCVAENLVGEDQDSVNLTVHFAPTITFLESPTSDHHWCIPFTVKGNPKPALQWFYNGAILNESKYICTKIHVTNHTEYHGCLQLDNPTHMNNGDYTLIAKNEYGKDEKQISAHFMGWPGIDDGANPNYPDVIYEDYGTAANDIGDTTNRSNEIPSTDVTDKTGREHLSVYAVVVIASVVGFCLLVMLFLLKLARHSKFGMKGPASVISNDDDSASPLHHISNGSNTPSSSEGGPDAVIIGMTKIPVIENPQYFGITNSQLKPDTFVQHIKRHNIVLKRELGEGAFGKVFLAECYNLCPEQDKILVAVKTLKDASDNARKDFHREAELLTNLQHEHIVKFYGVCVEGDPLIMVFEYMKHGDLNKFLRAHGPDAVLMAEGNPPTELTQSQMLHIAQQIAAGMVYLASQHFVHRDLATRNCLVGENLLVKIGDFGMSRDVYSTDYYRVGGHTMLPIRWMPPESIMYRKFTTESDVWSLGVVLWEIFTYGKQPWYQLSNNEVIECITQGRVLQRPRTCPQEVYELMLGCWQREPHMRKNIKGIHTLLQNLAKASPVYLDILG
Chain of 320 wild-type protein kinases (Homo sapiens, UniProt Q16644) (Q16644 whole entry): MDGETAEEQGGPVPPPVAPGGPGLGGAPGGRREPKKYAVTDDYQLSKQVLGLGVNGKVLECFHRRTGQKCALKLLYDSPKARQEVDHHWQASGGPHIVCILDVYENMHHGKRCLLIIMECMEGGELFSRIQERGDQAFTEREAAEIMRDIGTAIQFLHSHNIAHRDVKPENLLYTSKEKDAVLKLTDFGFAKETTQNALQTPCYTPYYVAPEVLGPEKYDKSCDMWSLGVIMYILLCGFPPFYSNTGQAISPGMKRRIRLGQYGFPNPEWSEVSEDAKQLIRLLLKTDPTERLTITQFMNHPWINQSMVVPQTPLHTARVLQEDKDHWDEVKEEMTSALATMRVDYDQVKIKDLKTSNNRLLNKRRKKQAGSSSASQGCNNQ
Chain of 320 wild-type protein kinases (Homo sapiens, UniProt P27361) (P27361 whole entry): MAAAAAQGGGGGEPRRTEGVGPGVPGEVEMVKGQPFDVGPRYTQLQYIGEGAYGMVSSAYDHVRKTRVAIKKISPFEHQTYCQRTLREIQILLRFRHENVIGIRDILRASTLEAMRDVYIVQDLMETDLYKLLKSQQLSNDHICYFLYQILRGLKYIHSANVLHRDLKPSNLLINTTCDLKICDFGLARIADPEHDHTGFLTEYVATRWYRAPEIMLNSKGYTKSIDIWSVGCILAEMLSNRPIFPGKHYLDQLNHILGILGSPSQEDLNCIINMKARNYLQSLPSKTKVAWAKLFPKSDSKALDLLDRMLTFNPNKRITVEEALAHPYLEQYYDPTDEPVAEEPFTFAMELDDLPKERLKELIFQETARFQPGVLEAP
Chain of 320 wild-type protein kinases (Homo sapiens, UniProt Q5TCX8) (Q5TCX8 whole entry): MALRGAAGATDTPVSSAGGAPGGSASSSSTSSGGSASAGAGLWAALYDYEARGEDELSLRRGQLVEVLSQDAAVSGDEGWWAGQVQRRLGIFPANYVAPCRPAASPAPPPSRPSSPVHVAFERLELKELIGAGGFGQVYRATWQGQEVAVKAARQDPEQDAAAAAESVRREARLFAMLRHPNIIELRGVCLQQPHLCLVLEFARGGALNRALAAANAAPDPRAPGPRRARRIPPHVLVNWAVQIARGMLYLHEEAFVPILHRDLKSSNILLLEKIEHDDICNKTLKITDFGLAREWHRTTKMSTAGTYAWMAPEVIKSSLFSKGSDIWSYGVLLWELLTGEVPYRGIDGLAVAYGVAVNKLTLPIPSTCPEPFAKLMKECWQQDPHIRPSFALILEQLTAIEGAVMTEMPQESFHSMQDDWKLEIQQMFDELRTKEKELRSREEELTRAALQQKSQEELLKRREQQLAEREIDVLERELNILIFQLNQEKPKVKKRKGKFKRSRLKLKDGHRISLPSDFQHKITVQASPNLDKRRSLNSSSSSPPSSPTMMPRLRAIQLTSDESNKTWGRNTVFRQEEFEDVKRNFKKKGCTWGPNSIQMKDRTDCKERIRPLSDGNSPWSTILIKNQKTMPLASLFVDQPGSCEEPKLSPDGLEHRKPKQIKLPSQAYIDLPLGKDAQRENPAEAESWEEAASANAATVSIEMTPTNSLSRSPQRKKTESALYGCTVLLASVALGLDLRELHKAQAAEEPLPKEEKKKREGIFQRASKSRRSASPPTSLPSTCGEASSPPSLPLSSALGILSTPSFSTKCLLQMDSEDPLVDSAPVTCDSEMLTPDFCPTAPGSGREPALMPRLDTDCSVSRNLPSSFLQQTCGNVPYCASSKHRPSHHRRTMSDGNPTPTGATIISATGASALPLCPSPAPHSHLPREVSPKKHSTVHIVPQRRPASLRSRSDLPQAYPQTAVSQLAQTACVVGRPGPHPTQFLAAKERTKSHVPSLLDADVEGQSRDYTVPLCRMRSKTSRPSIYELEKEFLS

SMILES	Residual activity ([1]; MLK4, 1.0E-06 M)	Residual activity ([1]; MLK4, 1.0E-07 M)	Residual activity ([2]; MAPKAPK3, 1.0E-06 M)	Residual activity ([2]; MAPKAPK3, 1.0E-07 M)	Residual activity ([3]; EPHA8, 1.0E-06 M)	Residual activity ([3]; EPHA8, 1.0E-07 M)	Residual activity, SGK3 ([4]; assay conc. 1.0E-06 M)	Residual activity, SGK3 ([4]; assay conc. 1.0E-07 M)	Residual activity, TRK-B ([5]; assay conc. 1.0E-06 M)	Residual activity, TRK-B ([5]; assay conc. 1.0E-07 M)	Residual activity ([6]; EPHB4, 1.0E-06 M)	Residual activity ([6]; EPHB4, 1.0E-07 M)	Residual activity ([7]; ERK1, 1.0E-06 M)	Residual activity ([7]; ERK1, 1.0E-07 M)
C#Cc1cc(Nc2ncnc3cc(I)ccc23)ccc1Cl [Compound 41]	85 % of control	79 % of control	86 % of control	99 % of control	118 % of control	110 % of control	86 % of control	91 % of control	98 % of control	107 % of control	92 % of control	89 % of control	97 % of control	91 % of control
C#Cc1cc(Nc2ncnc3cc(OC)c(OC)cc23)ccc1Cl [Compound 45]	83 % of control	85 % of control	87 % of control		103 % of control	112 % of control	89 % of control	93 % of control	97 % of control	98 % of control	82 % of control	101 % of control	95 % of control	92 % of control
